experiment: Human HepG2 cell viability assay in 384 well format; assay type: toxicity, cell-based; set-up: dose 125 nL, time 70.5 hour; concentration not given beside the values; settings: HepG2 cells, read-out: Inhibition

Going from `Cc1cc(=O)n(CC(=O)NCCC(C)C)c(-c2cccc(Cl)c2)n1` to `COCCNC(=O)Cn1c(-c2ccco2)cc2cccnc21`, the cytotoxicity at 70.5 h falls from -1.79% to -8.41%.

Compared with `CN1CCCCC(C2CCN(S(=O)(=O)c3cn(C)cn3)CC2)C1=O` (stereo unspecified), `CCC(=O)N1CCC(c2nc(N3CCOCC3)ncc2S(C)(=O)=O)CC1` is lower in cytotoxicity at 70.5 h: 0.674% for the first, -9.6% for the second.

First: O=C(c1ccnc(C2CCNCC2)c1)N1CCCC(CO)C1 (stereo unspecified)
Second: O=C(c1ccnc(C2CCNCC2)c1)N1CCCOCC1
The cytotoxicity at 70.5 h of the first is lower: -2.32% for the first, -1.42% for the second.

Compared with `O=C1CCOC[C@]2(CN(Cc3ccccc3)C[C@H]2c2cccnc2)N1`, `CS(=O)(=O)N[C@@H]1CN(Cc2ccccc2)C[C@H]1O` is lower in cytotoxicity at 70.5 h: 15.4% for the first, -5.89% for the second.

First: CC(C)N1CCOC(c2ccnc(N(C)C)n2)C1 (stereo unspecified)
Second: CC(=O)N1CCOC(c2ccnc(N(C)C)n2)C1 (stereo unspecified)
The cytotoxicity at 70.5 h of the first is lower: -3.86% for the first, 1.91% for the second.

Compared with `COCC(=O)NC(Cc1cc(N(C)C)nc(C2CC2)n1)c1ccccc1` (stereo unspecified), `COCC(=O)NCc1ccc(-c2ccccc2C(=O)O)cn1` is lower in cytotoxicity at 70.5 h: -2.08% for the first, -3.58% for the second.

Going from `Cc1ccc(OCCCNC(=O)C2(C)CC(=O)N3C=CC=CC3=N2)cc1` (stereo unspecified) to `Cc1cc(C)n(CCNCc2cc(-c3ccc(Cl)cc3)c[nH]c2=O)n1`, the cytotoxicity at 70.5 h falls from -3.61% to -3.88%.

First: NC(=O)CN1CCC(c2csc(Nc3cnccn3)n2)CC1
Second: NC(=O)CN1CCCC(c2cncc(Nc3ncccn3)n2)C1 (stereo unspecified)
The cytotoxicity at 70.5 h of the first is higher: -4.74% for the first, -6.48% for the second.

Compared with `FC(F)(F)c1cc(C2CCCN(c3ncccn3)C2)n2ccnc2n1` (stereo unspecified), `CC(=O)N1CCCC(c2ccnc(Nc3cnccn3)n2)C1` (stereo unspecified) is lower in cytotoxicity at 70.5 h: -2.5% for the first, -7.2% for the second.

Compared with `Cc1cc(C)nc(Nc2nccnc2C2CCCN(CCO)C2)n1` (stereo unspecified), `Cc1cc(C)nc(Nc2nccnc2C2CCCN(C(C)C)C2)n1` (stereo unspecified) is higher in cytotoxicity at 70.5 h: -3.54% for the first, 1.6% for the second.

Going from `Cc1ccccc1OC1CCN(CC(=O)Nc2c(C)nn(C)c2C)CC1` to `Cc1ccccc1OC1CCN(CC(=O)Nc2ccn(C)n2)CC1`, the cytotoxicity at 70.5 h falls from 1.35% to -7.79%.

First: Cc1nc(CCC(N)=O)cc(C2CCCN2S(C)(=O)=O)n1 (stereo unspecified)
Second: Cc1noc(C)c1-c1nc(C2CCCN(CCC(N)=O)C2)ccc1CO (stereo unspecified)
The cytotoxicity at 70.5 h of the first is higher: 0.687% for the first, -6.81% for the second.

Compared with `O=C(c1cc2cccc(F)c2[nH]1)N1C[C@@H](O)[C@H](N2CCOCC2)C1`, `Cc1cncc(C(=O)N[C@@H]2CC[C@@H](N3CCOCC3)[C@@H]2O)c1` is lower in cytotoxicity at 70.5 h: -5.87% for the first, -8.5% for the second.

Going from `COCCNC(=O)CN1CC=C(n2c(C)nc(=O)c3ccccc32)CC1` to `COCCNC(=O)C(C)n1nc(-c2ccco2)cc(N)c1=O` (stereo unspecified), the cytotoxicity at 70.5 h rises from 0.895% to 23.7%.

First: O=C(c1ccc2c(c1)CCCC2)N1CCn2ncnc2C1
Second: Cc1cn[nH]c1C1COCCN1C(=O)c1ccc2c(c1)CCCC2 (stereo unspecified)
The cytotoxicity at 70.5 h of the first is higher: 2.9% for the first, -3.65% for the second.

Compared with `Cc1nn(C)c(C)c1-c1cnc(CC2CCNC2)cn1` (stereo unspecified), `Cc1n[nH]c(C)c1-c1nccnc1CC1CCNC1` (stereo unspecified) is higher in cytotoxicity at 70.5 h: -4.3% for the first, -2.8% for the second.

Going from `CNc1cncc(C2CCN(C(=O)c3cnco3)CC2)n1` to `Cc1cnn(CC(=O)N2CCC(c3ccn4nccc4n3)CC2)c1`, the cytotoxicity at 70.5 h falls from 9.47% to -2.27%.

Compared with `CCc1cc(C(=O)N2CCCC(c3cc(=O)nc4n3CCC4)C2)no1` (stereo unspecified), `CC(C)(C)C(=O)N1CCC(c2noc(C3CCC(=O)N3)n2)CC1` (stereo unspecified) is lower in cytotoxicity at 70.5 h: -6.36% for the first, -6.7% for the second.

Compared with `Cc1ccc(-c2cc(N)c(=O)n(C(C)C(=O)NC(C)C)n2)o1` (stereo unspecified), `CCCNC(=O)C(C)n1nc(-c2ccc(C)o2)cc(N)c1=O` (stereo unspecified) is higher in cytotoxicity at 70.5 h: -11.9% for the first, -1.77% for the second.

Compared with `Cc1cc2c(cc1C)OC1(C=C2)CCN(CC(=O)N2CCOCC2)CC1`, `CO[C@H]1CN(C(=O)c2cccc(C)n2)CC[C@@]12CCCO2` is higher in cytotoxicity at 70.5 h: -8.77% for the first, -6.22% for the second.

First: Cc1sc(C(=O)NC(C)C)cc1S(=O)(=O)N(C)C
Second: COC(C)(C)C(=O)N1CCC(c2cc(CN(C)C)n(C)n2)CC1
The cytotoxicity at 70.5 h of the first is higher: -5.26% for the first, -10.8% for the second.

Compared with `COCCCNC(=O)C(C)n1nc(-c2ccco2)cc(N)c1=O` (stereo unspecified), `COCCN1C(=O)CO[C@H]2CN(Cc3cccc(OC)c3F)C[C@@H]21` is higher in cytotoxicity at 70.5 h: -6.27% for the first, -4.24% for the second.

Compared with `Cc1cc(Nc2nc(C)cc(C)n2)cc(C2CCCN2)n1` (stereo unspecified), `Cc1nc(Nc2cnccn2)cc(C2CCCN2)n1` (stereo unspecified) is higher in cytotoxicity at 70.5 h: -7.57% for the first, 19.5% for the second.

Going from `Cc1cc(N(C)C)nc(C2COCCN2Cc2cc(C)on2)n1` (stereo unspecified) to `CN(C)Cc1ccnc(C2CN(Cc3nccs3)CCO2)n1` (stereo unspecified), the cytotoxicity at 70.5 h rises from -7.49% to 1.69%.

First: Cc1noc(C)c1CC(=O)N1CCC(c2ccn3nccc3n2)CC1
Second: Cc1cccc(Nc2ccc(C3CCN(Cc4ncc[nH]4)CC3)nc2)n1
The cytotoxicity at 70.5 h of the first is lower: 0.22% for the first, 0.422% for the second.

Going from `Cc1cc(NC2CC3(CCN(Cc4csc(C)n4)C3)C2)ncn1` (stereo unspecified) to `Cc1c(CN2CCc3nc4sccc4c(=O)n3CC2)cnn1C`, the cytotoxicity at 70.5 h rises from -9.59% to -6.65%.

First: Cc1cc(N2CCCC(O)(CN(C)C(=O)CCN)C2)c2cnccc2n1 (stereo unspecified)
Second: CN(CC1(O)CCN(c2ccnc3ccncc23)CC1)C(=O)CCN
The cytotoxicity at 70.5 h of the first is higher: 26.9% for the first, -6.66% for the second.

Compared with `COc1ncc(CN2C[C@@H]3C[C@@H](O)CN3C[C@@H]2Cc2ccccc2)cn1`, `CN1CCC(Cc2cncc(-c3ccccc3C(=O)O)n2)C1` (stereo unspecified) is lower in cytotoxicity at 70.5 h: 18.8% for the first, -6.47% for the second.

First: CC(C)C(=O)N1CCCC(Cc2ccccn2)C1 (stereo unspecified)
Second: NC(=O)C1(CCCc2ccccn2)CCCN(CCO)C1 (stereo unspecified)
The cytotoxicity at 70.5 h of the first is higher: -1.35% for the first, -4.87% for the second.

Compared with `CN(C)CC1(O)CCN(C(=O)Cc2ccc3ccccc3c2)C1` (stereo unspecified), `CN(Cc1ccc(F)cc1)CC1(O)CCN(C(=O)c2ccn(C)n2)C1` (stereo unspecified) is lower in cytotoxicity at 70.5 h: -1.7% for the first, -6.54% for the second.

Going from `Cc1nc(C)c(C(=O)N2CCc3nnc(C4CCCN4C)n3CC2)s1` (stereo unspecified) to `O=C(CCc1cccnc1)N1CCCCC1c1ccn2ccnc2n1` (stereo unspecified), the cytotoxicity at 70.5 h falls from -3.4% to -6.74%.

Compared with `Cc1nccn1[C@@H]1CC[C@@H](NC(=O)Cn2c(C)nc3ccccc32)[C@H]1O`, `O=C(COc1ccccc1F)N1CCCCC1c1ccn2ccnc2n1` (stereo unspecified) is lower in cytotoxicity at 70.5 h: 0.7% for the first, -11.7% for the second.

Going from `O=C(Cn1ccnc1)N1C[C@@H]2CC[C@H](Oc3ccc(Cl)cc3)[C@@H]2C1` to `CC(=O)NCC(=O)N1C[C@@H]2CC[C@H](Oc3ccccc3Cl)[C@@H]2C1`, the cytotoxicity at 70.5 h rises from 0.299% to 12.5%.

Going from `COc1ccc(CN(Cc2cn(C)nc2C)CC2CCCO2)c(OC)c1` (stereo unspecified) to `COc1ccc(CN2CC[C@H](NC(C)=O)[C@@H](O)CC2)c(F)c1`, the cytotoxicity at 70.5 h falls from -2.41% to -5.93%.

First: O=C(COc1cccc(F)c1)N1CCCCC1c1ccn2ccnc2n1 (stereo unspecified)
Second: CC(=O)N1CCCC1c1cccc(Oc2ccccc2F)n1 (stereo unspecified)
The cytotoxicity at 70.5 h of the first is lower: -9.3% for the first, -4.13% for the second.

First: CC(=O)N1CCCC1c1cccc(Cc2ccccc2Cl)n1 (stereo unspecified)
Second: Fc1ccc(Cc2cnc(C3CCCN3)cn2)cc1 (stereo unspecified)
The cytotoxicity at 70.5 h of the first is lower: 0.0226% for the first, 16.8% for the second.

Going from `CN(C)Cc1ccnc(C2CN(Cc3c(F)cccc3F)CCO2)n1` (stereo unspecified) to `COc1ccc(C(C)N(C)Cc2c(C3CC3)[nH]c3ncccc23)cc1` (stereo unspecified), the cytotoxicity at 70.5 h rises from -6.34% to -3.9%.

Compared with `CN1CCCC(c2ccc(N3CCOCC3)cn2)C1` (stereo unspecified), `c1cc(CNc2cnc(C3CCCN3)cn2)ccn1` (stereo unspecified) is higher in cytotoxicity at 70.5 h: -3.9% for the first, -1.63% for the second.

Going from `Cc1cc(C)n(CCCn2cncc2-c2ccc3c(c2)CC(C)N3C)n1` (stereo unspecified) to `Cc1nn(C)c(C)c1CCn1cncc1-c1ccc2c(c1)CC(C)N2C` (stereo unspecified), the cytotoxicity at 70.5 h rises from 2% to 4.43%.

First: CCN1c2ccc(-c3cncn3CCCn3ccnc3C)cc2CC1C (stereo unspecified)
Second: CN(CC(=O)NC(Cc1ccsc1)c1cccnc1)Cc1ccccn1 (stereo unspecified)
The cytotoxicity at 70.5 h of the first is lower: -0.494% for the first, 31.3% for the second.

`CC(C)NC(=O)C1(CC2CC(c3ccc(F)cc3)=NO2)CCNCC1` (stereo unspecified) gave a cytotoxicity at 70.5 h of 24.3%.

From ChEMBL document CHEMBL3507680, “University of Dundee, Gates Library screen for HepG2 cell viability”
